Among the data in PubChem BioAssay AID179 (DTP/NCI, 2004) are outcome, EC50 and IC50 values, retold here.

For orientation: pEC50 means the EC50 on a negative log10 scale, so that one unit is a factor of ten. By pIC50 is commonly meant −log10 of the IC50, conventionally taken in molar units.

In this experiment the test system is CEM cells HIV-1 protection, formazan growth assay. Put plainly: NCI AIDS Antiviral Assay. The conditions noted are these: for pIC50: measured here: growth of uninfected CEM cells. The essentials: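 Human CEM cells, uninfected and HIV-1-infected, exposed to five drug concentrations; growth measured by soluble formazan assay and scored as percent protection from infection, with protecting compounds retested.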

Molecules are shown by their SMILES. pEC50, pIC50: −log10 of the molar value. Calls of active or inactive are those of the source.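 The calls were made as follows: active = compounds giving half or more protection of infected cells from virus-caused growth loss, again on retest; inactive = the rest.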 A value given as a limit tells only on which side of the number the result lay.

On to `C[C@]12CC[C@H](OC(=O)/C=C\c3ccccc3N(CCCl)CCCl)CC1CC[C@@H]1C2CC[C@]2(C)NC(=O)CCC12` (some centres not stated), for which the outcome was inactive. For `C=CCc1cc(OC)c2c(c1)C(OC(C)=O)CC(c1ccc(OC)c(OC)c1)O2` (configuration not stated), the pEC50 is under 4.33 and the pIC50 is under 4.33. On to `COc1ccc(C2SCC(=O)N2c2ccc(-n3c(-c4ccccc4)nc4ccccc4c3=O)cc2)cc1` (configuration not stated), for which the pEC50 is under 3.70 and the pIC50 is 3.80.

Turning to `CC(=O)Nc1cc2c(s1)CCC1CC(=O)NN=C21` (configuration not stated), the pEC50 is under 3.70 and the negative-log IC50 (pIC50) is under 3.70.

As to `COc1cc(/C=C2\C=Cc3ccccc32)cc(OC)c1OC`, the pEC50 is under 4.61 and the negative-log IC50 (pIC50) was under 4.61. For `CC(C)=CC1CC(n2cc(C)c(=O)[nH]c2=O)ON1CCO` (configuration not stated), the pEC50 is under 3.70 and the pIC50 is under 3.70. Turning to `Clc1cc(Cl)cc(C=NC23CC4CC(CC(C4)C2)C3)c1`, the pEC50 is under 3.70 and the negative logarithm of the IC50 (pIC50) was 4.35. In the same order, the values of `CCCCCCCCCCCCCCCCC(C(=O)OC)S(=O)(=O)O` (configuration not stated) are under 3.70 and 3.91.

In the case of `COc1ccc(C2Oc3ccc(O)cc3[C@@H]2C)cc1OC` (some centres not stated), the pEC50 was under 3.76 and the pIC50 is under 3.76. As to `COc1ccc2c(c1)OC[C@@H]1c3cc(NS(=O)(=O)c4ccccc4)cc(OCc4ccccc4)c3O[C@H]21`, the negative logarithm of the EC50 (pEC50) is 4.99 and the pIC50 is 4.87.

Consider `CC(=O)OC(C(=O)NNC(=O)OC(C)(C)C)c1ccccc1` (configuration not stated), for which the pEC50 is under 3.70 and the pIC50 is under 3.70. As for `C/C(CCn1[nH]c(=O)ccc1=O)=N\NC(=O)C(N)=O`, the pEC50 was under 3.17 and the pIC50 was under 3.17. Turning to `Fc1ccc2c(c1)SC1Oc3ccccc3-c3c1c-2nn3-c1ccccc1` (configuration not stated), the pEC50 is under 4.71 and the negative-log IC50 (pIC50) is under 4.71. Consider `O=C(Nn1c(-c2ccccc2)nc2ccccc2c1=O)c1ccc(Cl)cc1`, for which the pEC50 was under 3.70 and the pIC50 was 3.92. In the same order, the values of `Clc1ccc(C=Nc2ccc(Oc3ccc(Cl)cc3)c(Cl)c2)cc1` are under 3.70 and 4.48. The matching figures for `CC1=NC(=O)C(C)(c2ccccc2)N1CCc1ccccc1` (configuration not stated): under 3.70 and 4.34. The matching figures for `Cc1cn(C2CC(O[Si](C)(C)C(C)(C)C)C(C/[N+]([O-])=N\Nc3ccc([N+](=O)[O-])cc3)O2)c(=O)[nH]c1=O` (configuration not stated): under 3.70 and 5.48. In the case of `O=C(/C=C(\O)C(=O)O)/C=C(\O)c1ccc(Cl)cc1`, the pEC50 is under 4.16 and the negative-log IC50 (pIC50) was under 4.16. With `CCN(CC)c1c(C)nnn1C1OC(COC(C)=O)C(OC(C)=O)C(OC(C)=O)C1OC(C)=O` (configuration not stated), the pEC50 is under 3.85 and the pIC50 was under 3.85.

For `CC1C[P+](c2ccccc2)(c2ccccc2)Cc2ccccc21` (configuration not stated), the pEC50 is under 3.15 and the negative-log IC50 (pIC50) was 5.59. The matching figures for `COC(=O)c1c(C)c2c(c(C)c1O)OC(=O)c1c(C)cc(O)c(C=O)c1O2`: 3.73 and under 3.70.

For `CCOC(=O)c1c2ccccc2n2c(=O)n(-c3ccc(OC)cc3)nnc12`, the pEC50 is under 4.24 and the pIC50 was 4.49. For the molecule `C1CSC(=[N+]2CC[N+](=C3SCCS3)CC2)S1`, the outcome was inactive. Regarding `CN1CCN(CCCCN2c3ccccc3Sc3ccc(N=[N+]=[N-])cc32)CC1`, the pEC50 was under 3.70 and the pIC50 was 5.28. `COCCCCCCCCCCCC(=O)O`: the pEC50 is under 3.70 and the negative-log IC50 (pIC50) is under 3.70.

Regarding `COc1ccc2c(c1)-c1c(c3ccccc3n1CCN1CCCCC1)CC2`, the pEC50 was under 4.00 and the pIC50 is 4.51. As for `CC(=O)/C(=N\Nc1ccc(Cl)cc1)C(C)=Nc1ccc(C)cc1`, the pEC50 was under 3.70 and the pIC50 is 4.52. In the case of `CC(=O)NC1C(OCc2ccccc2)OC(COC(=O)CCCCCCCCCCNc2ccc([N+](=O)[O-])c3[nH]c4ccccc4c(=O)c23)C(O)C1OC(C)C(=O)NC(C)C(=O)NC(CCC(N)=O)C(=O)OCc1ccccc1` (configuration not stated), the pEC50 was under 3.78 and the pIC50 is under 3.78.

As for `CSC1=NC(C(N)=O)C(N)N1C` (configuration not stated), the pEC50 was under 3.70 and the negative-log IC50 (pIC50) was under 3.70. Consider `O=Nc1c(O)ccc2ccccc12`, for which the pEC50 is under 3.70 and the negative logarithm of the IC50 (pIC50) was 5.62. The matching figures for `C=C1c2ccccc2CCN1CC(=O)CC1C=CCS1(=O)=O` (configuration not stated): under 3.39 and under 3.39. In the same order, the values of `NC(N)=NCCN1CCCCCCC1` are under 3.70 and under 3.70.

In the case of `C[N+](C)(C)CC(=O)N/N=c1\cc(C(=O)Nc2ccc(N=O)cc2C#N)oc2cc(O)ccc12`, the pEC50 is under 3.43 and the negative-log IC50 (pIC50) was under 3.43. Regarding `O=C1C[C@@]23CCC4(CC2CCC[C@H]3O1)OCCO4` (some centres not stated), the outcome was inactive. Turning to `COC(C)(C)C/C=C/C(C)=C/C=C/C(C)=C\C=C\C(C)=C\C=C\C=C(C)\C=C\C=C(C)\C=C\C=C(C)\C=C\CC(C)(C)OC`, the result was inactive. `CN1CCN(/C(N)=C(\C#N)C(=O)Nc2ccc(Cl)cc2)CC1`: the pEC50 was under 3.70 and the pIC50 was under 4.00. In the same order, the values of `S=c1nc(/C=C/c2ccc(Cl)c(Cl)c2)[nH][nH]1` are under 4.44 and under 4.44.

For `CC(C)N1CN(C(C(=O)N[C@@H]2C(=O)N3C2SC(C)(C)C3C(=O)O)c2ccccc2)CSC1=S` (some centres not stated), the pEC50 is under 3.59 and the negative-log IC50 (pIC50) was 3.81. As to `O=c1[nH]c(=O)n(C2CC(O)C(CO)O2)cc1OC/C=C/Cc1ccccc1` (configuration not stated), the pEC50 was under 3.70 and the negative-log IC50 (pIC50) was under 3.70. `N/N=C1\CCCc2c1no[n+]2[O-]`: the pEC50 is under 3.70 and the pIC50 was under 3.70.

As to `CN(C)/N=C1\C=C2CC[C@H](O[Si](C)(C)C(C)(C)C)[C@@]2(C)CC1`, the pEC50 was under 3.70 and the negative-log IC50 (pIC50) is 4.91. For the molecule `COc1cc(C[C@@]2(O)C(=O)OCC2Cc2ccc(OC)c(OC)c2)ccc1O` (some centres not stated), the pEC50 is under 3.70 and the pIC50 is 4.44. Regarding `Nc1nc(Cl)cc(OCC2(CO)CC=CC2)n1`, the pEC50 was under 3.70 and the pIC50 is 3.90. In the same order, the values of `O=C(O)C1CC(C2CCCCN2)CN2CCCCC12` (configuration not stated) are under 3.70 and under 3.70. `COc1cc([N+](=O)[O-])c(S(=O)(=O)O)cc1NS(=O)(=O)c1ccc(C)cc1`: the pEC50 was under 3.70 and the pIC50 is under 3.70. Regarding `COc1ccc(SCc2cc(OC)ccc2OC)cc1`, the pEC50 is under 3.70 and the negative logarithm of the IC50 (pIC50) was 5.40.

`CCOC(=O)CNC1C(NC(C)=O)C(OC)OC2COC(c3ccccc3)OC21` (configuration not stated): the outcome was inactive. For `Cc1nc(C(N)=S)sc1/C(CC(=O)C(=O)Nc1cccc2ccc(O)cc12)=N\NC(=O)c1ccncc1`, the pEC50 is under 4.45 and the pIC50 is under 4.45.

Take `CCOc1ccc(N=c2ssc(SC)c2-c2ccccc2)cc1`: the pEC50 was under 3.70 and the negative logarithm of the IC50 (pIC50) is 4.21. `O=C(O)CCNS(=O)(=O)c1ccc2ccccc2c1`: the result was inactive. On the same count and under the same terms, the value for `COCCOCCOCCOc1cccc2c1C(=O)c1c(OCCOCCOCCOC)cccc1C2=O` was “inactive”. Take `NC1=NCCC1(c1ccccc1)c1ccccn1` (configuration not stated): the pEC50 is under 3.26 and the pIC50 was 3.31.
